Data from PubChem BioAssay (NCI).
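Here, GI50 denotes the concentration required for 50% inhibition of growth. TGI marks complete inhibition of growth.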

Tests used:
Assay in all cases: inhibition of tumour cell growth, NCI panel, 384-well format
RXF 393 renal = tested on: RXF 393 renal
HCC-2998 colon = tested on: HCC-2998 colon
HOP-62 NSCLC = tested on: HOP-62 NSCLC
786-0 renal = tested on: 786-0 renal
HCT-116 colon = tested on: HCT-116 colon
ACHN renal = tested on: ACHN renal
HOP-92 NSCLC = tested on: HOP-92 NSCLC
T-47D breast = tested on: T-47D breast
OVCAR-3 ovarian = tested on: OVCAR-3 ovarian
MDA-MB-231 breast = tested on: MDA-MB-231 breast
M14 melanoma = tested on: M14 melanoma
HT29 colon = tested on: HT29 colon
EKVX NSCLC = tested on: EKVX NSCLC
A498 renal = tested on: A498 renal
PC-3 prostate = tested on: PC-3 prostate
TK-10 renal = tested on: TK-10 renal
IGROV1 ovarian = tested on: IGROV1 ovarian
SK-MEL-5 melanoma = tested on: SK-MEL-5 melanoma
OVCAR-4 ovarian = tested on: OVCAR-4 ovarian
LOX IMVI melanoma = tested on: LOX IMVI melanoma
NCI-H226 lung = tested on: NCI-H226 lung
HS 578T breast = tested on: HS 578T breast
CCRF-CEM leukemia = tested on: CCRF-CEM leukemia
SR leukemia = tested on: SR leukemia
MALME-3M melanoma = tested on: MALME-3M melanoma
SK-OV-3 ovarian = tested on: SK-OV-3 ovarian
UACC-62 melanoma = tested on: UACC-62 melanoma
COLO 205 colon = tested on: COLO 205 colon
UACC-257 melanoma = tested on: UACC-257 melanoma
RPMI-8226 leukemia = tested on: RPMI-8226 leukemia
NCI-H460 NSCLC = tested on: NCI-H460 NSCLC
MOLT-4 leukemia = tested on: MOLT-4 leukemia
MDA-MB-435 melanoma = tested on: MDA-MB-435 melanoma
SNB-19 CNS = tested on: SNB-19 CNS
DU-145 prostate = tested on: DU-145 prostate
HL-60(TB) leukemia = tested on: HL-60(TB) leukemia
CAKI-1 renal = tested on: CAKI-1 renal
SW-620 colon = tested on: SW-620 colon
NCI-H522 lung = tested on: NCI-H522 lung
SF-295 CNS = tested on: SF-295 CNS
MCF7 breast = tested on: MCF7 breast
SF-539 CNS = tested on: SF-539 CNS
SNB-75 CNS = tested on: SNB-75 CNS
SF-268 CNS = tested on: SF-268 CNS
SK-MEL-28 melanoma = tested on: SK-MEL-28 melanoma
NCI/ADR-RES ovarian = tested on: NCI/ADR-RES ovarian
U251 glioblastoma = tested on: U251 glioblastoma
A549 NSCLC = tested on: A549 NSCLC
OVCAR-8 ovarian = tested on: OVCAR-8 ovarian
BT-549 breast = tested on: BT-549 breast
NCI-H322M lung = tested on: NCI-H322M lung
SN12C renal = tested on: SN12C renal
K-562 leukemia = tested on: K-562 leukemia
NCI-H23 lung = tested on: NCI-H23 lung
UO-31 renal = tested on: UO-31 renal
MDA-MB-468 breast = tested on: MDA-MB-468 breast

In the case of C[C@@H]1COCCN1c1cc(-c2ccnn2C)c2ccnc(-c3ccn[nH]3)c2n1, the GI50 (RXF 393 renal) is reported as 0.0277 µM, the TGI (RXF 393 renal) is reported as 0.105 µM and the GI50 (HCC-2998 colon) is reported as less than 0.01 µM. The TGI (HCC-2998 colon) was 0.018 µM, the GI50 (HOP-62 NSCLC) was 0.028 µM and the TGI (HOP-62 NSCLC) was 0.155 µM. For the same molecule, the GI50 ([…]-0 renal) was 0.0373 µM, the TGI (786-0 renal) was 0.191 µM and the GI50 (HCT-116 colon) was 0.0329 µM. The TGI (HCT-116 colon) was 7.97 µM, the GI50 (ACHN renal) was 0.0498 µM and the TGI (ACHN renal) was 0.225 µM. For the same molecule, the GI50 (HOP-92 NSCLC) was 0.0362 µM, the TGI (HOP-92 NSCLC) was 0.339 µM and the GI50 (T-47D breast) was 0.389 µM. It also gave a TGI (T-47D breast) of 8.1 µM, a GI50 (OVCAR-3 ovarian) of 0.0911 µM and a TGI (OVCAR-3 ovarian) of 2.62 µM. It also gave a GI50 (MDA-MB-231 breast) of 0.353 µM, a TGI (MDA-MB-231 breast) greater than 100 µM and a GI50 (M14 melanoma) of 0.0132 µM. The TGI (M14 melanoma) was 0.0415 µM, the GI50 (HT29 colon) was 0.234 µM and the TGI (HT29 colon) was 0.706 µM. For the same molecule, the GI50 (EKVX NSCLC) was 0.124 µM, the TGI (EKVX NSCLC) was 2.48 µM and the GI50 (A498 renal) was 0.0193 µM. It also gave a TGI (A498 renal) of 0.0677 µM, a GI50 (PC-3 prostate) of 0.262 µM and a TGI (PC-3 prostate) of 11.8 µM. The GI50 (TK-10 renal) was 0.0287 µM, the TGI (TK-10 renal) was 0.0941 µM and the GI50 (IGROV1 ovarian) was 0.0932 µM. It also gave a TGI (IGROV1 ovarian) of 2.49 µM, a GI50 (SK-MEL-5 melanoma) of 0.202 µM and a TGI (SK-MEL-5 melanoma) of 0.873 µM. The GI50 (OVCAR-4 ovarian) was 0.039 µM, the TGI (OVCAR-4 ovarian) was 2.72 µM and the GI50 (LOX IMVI melanoma) was 0.0984 µM. For the same molecule, the TGI (LOX IMVI melanoma) was 1.09 µM, the GI50 (NCI-H226 lung) was 0.341 µM and the TGI (NCI-H226 lung) was 4.02 µM. For the same molecule, the GI50 (HS 578T breast) was 0.0167 µM, the TGI (HS 578T breast) was 0.0465 µM and the GI50 (CCRF-CEM leukemia) was less than 0.01 µM. For the same molecule, the TGI (CCRF-CEM leukemia) was 0.0215 µM, the GI50 (SR leukemia) was less than 0.01 µM and the GI50 (MALME-3M melanoma) was 0.0896 µM. It also gave a TGI (MALME-3M melanoma) of 0.985 µM, a GI50 (SK-OV-3 ovarian) of 0.0635 µM and a TGI (SK-OV-3 ovarian) of 0.539 µM. It also gave a GI50 (UACC-62 melanoma) of 0.176 µM, a TGI (UACC-62 melanoma) of 2.14 µM and a GI50 (COLO 205 colon) of 0.286 µM. The TGI (COLO 205 colon) was 2.58 µM, the GI50 (UACC-257 melanoma) was 1.82 µM and the TGI (UACC-257 melanoma) was 14 µM. The GI50 (RPMI-8226 leukemia) was 0.0174 µM, the TGI (RPMI-8226 leukemia) was 0.0452 µM and the GI50 (NCI-H460 NSCLC) was 0.0106 µM. For the same molecule, the TGI (NCI-H460 NSCLC) was 0.515 µM, the GI50 (MOLT-4 leukemia) was less than 0.01 µM and the TGI (MOLT-4 leukemia) was 0.0155 µM. It also gave a GI50 (MDA-MB-435 melanoma) of 0.033 µM, a TGI (MDA-MB-435 melanoma) of 0.456 µM and a GI50 (SNB-19 CNS) of 0.282 µM. It also gave a TGI (SNB-19 CNS) of 9.47 µM, a GI50 (DU-145 prostate) of 0.053 µM and a TGI (DU-145 prostate) of 16.3 µM. It also gave a GI50 (HL-60(TB) leukemia) of 0.0268 µM, a TGI (HL-60(TB) leukemia) of 0.0839 µM and a GI50 (CAKI-1 renal) of 0.142 µM. For the same molecule, the TGI (CAKI-1 renal) was 1.8 µM, the GI50 (SW-620 colon) was 0.247 µM and the TGI (SW-620 colon) was 19.3 µM. The GI50 (NCI-H522 lung) was 0.411 µM, the TGI (NCI-H522 lung) was 10.7 µM and the GI50 (SF-295 CNS) was 0.0369 µM. For the same molecule, the TGI (SF-295 CNS) was 0.173 µM, the GI50 (MCF7 breast) was 0.0188 µM and the TGI (MCF7 breast) was 14.2 µM. It also gave a GI50 (SF-539 CNS) of 0.0432 µM, a TGI (SF-539 CNS) of 0.259 µM and a GI50 (SNB-75 CNS) of 0.264 µM. The TGI (SNB-75 CNS) was 1.76 µM, the GI50 (SF-268 CNS) was 0.0974 µM and the TGI (SF-268 CNS) was 10.5 µM. The GI50 (SK-MEL-28 melanoma) was 1.03 µM, the TGI (SK-MEL-28 melanoma) was 13.9 µM and the GI50 (NCI/ADR-RES ovarian) was 0.072 µM. The TGI (NCI/ADR-RES ovarian) was 0.27 µM, the GI50 (U251 glioblastoma) was 0.123 µM and the TGI (U251 glioblastoma) was 11.9 µM. It also gave a GI50 (A549 NSCLC) of 0.104 µM, a TGI (A549 NSCLC) of 2.23 µM and a GI50 (OVCAR-8 ovarian) of 0.0611 µM. The TGI (OVCAR-8 ovarian) was 0.357 µM, the GI50 (BT-549 breast) was 0.0222 µM and the TGI (BT-549 breast) was 0.0871 µM. For the same molecule, the GI50 (NCI-H322M lung) was 0.0217 µM, the TGI (NCI-H322M lung) was 0.213 µM and the GI50 (SN12C renal) was 0.273 µM. The TGI (SN12C renal) was 6.65 µM, the GI50 (K-562 leukemia) was 0.0404 µM and the TGI (K-562 leukemia) was 0.125 µM. The GI50 (NCI-H23 lung) was 0.0162 µM, the TGI (NCI-H23 lung) was 0.0563 µM and the GI50 (UO-31 renal) was 0.0586 µM. It also gave a TGI (UO-31 renal) of 0.828 µM, a GI50 (MDA-MB-468 breast) of 0.192 µM and a TGI (MDA-MB-468 breast) of 0.973 µM.
